{
  "source": "patent US20230085307A1",
  "about": "“PYRIDAZINONE COMPOUND AND HERBICIDE” (NISSAN CHEMICAL CORPORATION, priority 2019, published 2023)",
  "key": {"[1]": {"test_system": "blackgrass", "test": "Test Example 5: herbicidal effect by foliage application, plastic box (Table 20, symbol J)", "type": "in vivo, blackgrass (Alopecurus myosuroides)", "conditions": "foliage application, 320 g/ha, evaluated three weeks after application", "outline": "(§1)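 Foliar spray test: emulsion formulation diluted in water to a set application rate, sprayed onto 14-day-old plants raised in diluvial soil at 25° C to 30° C under glass. Both herbicidal effect and crop effect rated visually three weeks later.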"}, "[2]": {"test_system": "southern crabgrass", "test": "Test Example 4: herbicidal effect by soil treatment (Table 19, symbol F)", "type": "in vivo, southern crabgrass (Digitaria ciliaris)", "conditions": "amount of applied herbicide 320 g/ha", "outline": "(§2)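 Herbicidal effect was rated 3 weeks after treatment, using the scoring criteria of an earlier test. The compound, formulated as an emulsion and diluted in water to a set herbicide amount, had been sprayed uniformly on soil over freshly sown seeds. Growth took place in a greenhouse at 25° C. to 30° C.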"}, "[3]": {"test_system": "redroot pigweed", "test": "Test Example 4: herbicidal effect by soil treatment (Table 19, symbol N)", "type": "in vivo, redroot pigweed (Amaranthus retroflexus)", "conditions": "amount of applied herbicide 320 g/ha", "outline": "as §2"}, "[4]": {"test_system": "Italian ryegrass", "test": "Test Example 5: herbicidal effect by foliage application, plastic box (Table 20, symbol K)", "type": "in vivo, Italian ryegrass (Lolium multiflorum)", "conditions": "foliage application, 320 g/ha, evaluated three weeks after application", "outline": "as §1"}, "[5]": {"test_system": "redroot pigweed", "test": "Test Example 5: herbicidal effect by foliage application, plastic box (Table 20, symbol N)", "type": "in vivo, redroot pigweed (Amaranthus retroflexus)", "conditions": "foliage application, 320 g/ha, evaluated three weeks after application", "outline": "as §1"}, "[6]": {"test_system": "barnyard grass", "test": "Test Example 4: herbicidal effect by soil treatment (Table 19, symbol H)", "type": "in vivo, barnyard grass (Echinochloa crus-galli)", "conditions": "amount of applied herbicide 320 g/ha", "outline": "as §2"}, "[7]": {"test_system": "southern crabgrass", "test": "Test Example 5: herbicidal effect by foliage application, plastic box (Table 20, symbol F)", "type": "in vivo, southern crabgrass (Digitaria ciliaris)", "conditions": "foliage application, 320 g/ha, evaluated three weeks after application", "outline": "as §1"}, "[8]": {"test_system": "windgrass", "test": "Test Example 4: herbicidal effect by soil treatment (Table 19, symbol L)", "type": "in vivo, windgrass (Apera spica-venti)", "conditions": "amount of applied herbicide 320 g/ha", "outline": "as §2"}, "[9]": {"test_system": "persian speedwell", "test": "Test Example 5: herbicidal effect by foliage application, plastic box (Table 20, symbol R)", "type": "in vivo, Persian speedwell (Veronica persica)", "conditions": "foliage application, 320 g/ha, evaluated three weeks after application", "outline": "as §1"}, "[10]": {"test_system": "wild oat", "test": "Test Example 5: herbicidal effect by foliage application, plastic box (Table 20, symbol I)", "type": "in vivo, wild oat (Avena fatua)", "conditions": "foliage application, 320 g/ha, evaluated three weeks after application", "outline": "as §1"}, "[11]": {"test_system": "blackgrass", "test": "Test Example 4: herbicidal effect by soil treatment (Table 19, symbol J)", "type": "in vivo, blackgrass (Alopecurus myosuroides)", "conditions": "amount of applied herbicide 320 g/ha", "outline": "as §2"}, "[12]": {"test_system": "lambsquarters", "test": "Test Example 5: herbicidal effect by foliage application, plastic box (Table 20, symbol O)", "type": "in vivo, lambsquarters (Chenopodium album)", "conditions": "foliage application, 320 g/ha, evaluated three weeks after application", "outline": "as §1"}, "[13]": {"test_system": "false cleavers", "test": "Test Example 4: herbicidal effect by soil treatment (Table 19, symbol Q)", "type": "in vivo, false cleavers (Galium spurium)", "conditions": "amount of applied herbicide 320 g/ha", "outline": "as §2"}, "[14]": {"test_system": "chickweed", "test": "Test Example 5: herbicidal effect by foliage application, plastic box (Table 20, symbol P)", "type": "in vivo, common chickweed (Stellaria media)", "conditions": "foliage application, 320 g/ha, evaluated three weeks after application", "outline": "as §1"}, "[15]": {"test_system": "chickweed", "test": "Test Example 4: herbicidal effect by soil treatment (Table 19, symbol P)", "type": "in vivo, common chickweed (Stellaria media)", "conditions": "amount of applied herbicide 320 g/ha", "outline": "as §2"}, "[16]": {"test_system": "velvetleaf", "test": "Test Example 4: herbicidal effect by soil treatment (Table 19, symbol M)", "type": "in vivo, velvetleaf (Abutilon theophrasti)", "conditions": "amount of applied herbicide 320 g/ha", "outline": "as §2"}, "[17]": {"test_system": "barnyard grass", "test": "Test Example 5: herbicidal effect by foliage application, plastic box (Table 20, symbol H)", "type": "in vivo, barnyard grass (Echinochloa crus-galli)", "conditions": "foliage application, 320 g/ha, evaluated three weeks after application", "outline": "as §1"}, "[18]": {"test_system": "velvetleaf", "test": "Test Example 5: herbicidal effect by foliage application, plastic box (Table 20, symbol M)", "type": "in vivo, velvetleaf (Abutilon theophrasti)", "conditions": "foliage application, 320 g/ha, evaluated three weeks after application", "outline": "as §1"}, "[19]": {"test_system": "green foxtail", "test": "Test Example 4: herbicidal effect by soil treatment (Table 19, symbol G)", "type": "in vivo, green foxtail (Setaria viridis)", "conditions": "amount of applied herbicide 320 g/ha", "outline": "as §2"}, "[20]": {"test_system": "Italian ryegrass", "test": "Test Example 4: herbicidal effect by soil treatment (Table 19, symbol K)", "type": "in vivo, Italian ryegrass (Lolium multiflorum)", "conditions": "amount of applied herbicide 320 g/ha", "outline": "as §2"}, "[21]": {"test_system": "green foxtail", "test": "Test Example 5: herbicidal effect by foliage application, plastic box (Table 20, symbol G)", "type": "in vivo, green foxtail (Setaria viridis)", "conditions": "foliage application, 320 g/ha, evaluated three weeks after application", "outline": "as §1"}, "[22]": {"test_system": "lambsquarters", "test": "Test Example 4: herbicidal effect by soil treatment (Table 19, symbol O)", "type": "in vivo, lambsquarters (Chenopodium album)", "conditions": "amount of applied herbicide 320 g/ha", "outline": "as §2"}, "[23]": {"test_system": "wild oat", "test": "Test Example 4: herbicidal effect by soil treatment (Table 19, symbol I)", "type": "in vivo, wild oat (Avena fatua)", "conditions": "amount of applied herbicide 320 g/ha", "outline": "as §2"}, "[24]": {"test_system": "barnyard grass", "test": "Test Example 3: herbicidal effect by foliage application, Wagner pot (Table 18, symbol H)", "type": "in vivo, barnyard grass (Echinochloa crus-galli)", "conditions": "amount of applied herbicide 320 g/ha", "outline": "(§3)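 Plants were sown in alluvial soil held under 0.1–0.5 cm standing water and grown 14 days in a greenhouse at 25–30 °C. An emulsifiable formulation, water-diluted to the set dose, was then sprayed onto the foliage, and effects were scored three weeks later using previously defined criteria.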"}, "[25]": {"test_system": "persian speedwell", "test": "Test Example 4: herbicidal effect by soil treatment (Table 19, symbol R)", "type": "in vivo, Persian speedwell (Veronica persica)", "conditions": "amount of applied herbicide 320 g/ha", "outline": "as §2"}, "[26]": {"test_system": "rice flat sedge", "test": "Test Example 3: herbicidal effect by foliage application, Wagner pot (Table 18, symbol E)", "type": "in vivo, rice flat sedge (Cyperus iria)", "conditions": "amount of applied herbicide 320 g/ha", "outline": "as §3"}, "[27]": {"test_system": "windgrass", "test": "Test Example 5: herbicidal effect by foliage application, plastic box (Table 20, symbol L)", "type": "in vivo, windgrass (Apera spica-venti)", "conditions": "foliage application, 320 g/ha, evaluated three weeks after application", "outline": "as §1"}, "[28]": {"test_system": "Chinese sprangletop", "test": "Test Example 3: herbicidal effect by foliage application, Wagner pot (Table 18, symbol D)", "type": "in vivo, chinese sprangletop (Leptochloa chinensis)", "conditions": "amount of applied herbicide 320 g/ha", "outline": "as §3"}},
  "data": [
    {"smiles": "CCSc1cccc(-c2sc3ccc(F)cc3c2-c2c(O)c(C)nn(C)c2=O)c1", "note": "[2-242]", "values": [
      {"measurement": "herbicidal effect on J: blackgrass (criteria 0-5)", "setting": "[1]", "result": "0 (Herbicidal rate of 5% or less (almost no effect))"},
      {"measurement": "herbicidal effect on F: southern crabgrass", "setting": "[2]", "result": "0 (Herbicidal rate of 5% or less (almost no effect))"},
      {"measurement": "herbicidal effect on N: redroot pigweed", "setting": "[3]", "result": "2 (Herbicidal rate of 20% or more and less than 40%)"},
      {"measurement": "herbicidal effect on K: Italian ryegrass (criteria 0-5)", "setting": "[4]", "result": "1 (Herbicidal rate of 5% or more and less than 20%)"},
      {"measurement": "herbicidal effect on N: redroot pigweed (criteria 0-5)", "setting": "[5]", "result": "4 (Herbicidal rate of 70% or more and less than 90%)"},
      {"measurement": "herbicidal effect on H: barnyard grass", "setting": "[6]", "result": "0 (Herbicidal rate of 5% or less (almost no effect))"},
      {"measurement": "herbicidal effect on F: southern crabgrass (criteria 0-5)", "setting": "[7]", "result": "3 (Herbicidal rate of 40% or more and less than 70%)"},
      {"measurement": "herbicidal effect on L: windgrass", "setting": "[8]", "result": "0 (Herbicidal rate of 5% or less (almost no effect))"},
      {"measurement": "herbicidal effect on R: persian speedwell (criteria 0-5)", "setting": "[9]", "result": "5 (Herbicidal rate of 90% or more (almost completely withered))"},
      {"measurement": "herbicidal effect on I: wild oat (criteria 0-5)", "setting": "[10]", "result": "4 (Herbicidal rate of 70% or more and less than 90%)"},
      {"measurement": "herbicidal effect on J: blackgrass", "setting": "[11]", "result": "0 (Herbicidal rate of 5% or less (almost no effect))"},
      {"measurement": "herbicidal effect on O: lambsquarters (criteria 0-5)", "setting": "[12]", "result": "3 (Herbicidal rate of 40% or more and less than 70%)"},
      {"measurement": "herbicidal effect on Q: false cleavers", "setting": "[13]", "result": "0 (Herbicidal rate of 5% or less (almost no effect))"},
      {"measurement": "herbicidal effect on P: chickweed (criteria 0-5)", "setting": "[14]", "result": "5 (Herbicidal rate of 90% or more (almost completely withered))"},
      {"measurement": "herbicidal effect on P: chickweed", "setting": "[15]", "result": "1 (Herbicidal rate of 5% or more and less than 20%)"},
      {"measurement": "herbicidal effect on M: velvetleaf", "setting": "[16]", "result": "0 (Herbicidal rate of 5% or less (almost no effect))"},
      {"measurement": "herbicidal effect on H: barnyard grass (criteria 0-5)", "setting": "[17]", "result": "1 (Herbicidal rate of 5% or more and less than 20%)"},
      {"measurement": "herbicidal effect on M: velvetleaf (criteria 0-5)", "setting": "[18]", "result": "3 (Herbicidal rate of 40% or more and less than 70%)"},
      {"measurement": "herbicidal effect on G: green foxtail", "setting": "[19]", "result": "0 (Herbicidal rate of 5% or less (almost no effect))"},
      {"measurement": "herbicidal effect on K: Italian ryegrass", "setting": "[20]", "result": "0 (Herbicidal rate of 5% or less (almost no effect))"},
      {"measurement": "herbicidal effect on G: green foxtail (criteria 0-5)", "setting": "[21]", "result": "3 (Herbicidal rate of 40% or more and less than 70%)"},
      {"measurement": "herbicidal effect on O: lambsquarters", "setting": "[22]", "result": "1 (Herbicidal rate of 5% or more and less than 20%)"},
      {"measurement": "herbicidal effect on I: wild oat", "setting": "[23]", "result": "0 (Herbicidal rate of 5% or less (almost no effect))"},
      {"measurement": "herbicidal effect on H: barnyard grass", "setting": "[24]", "result": "3 (Herbicidal rate of 40% or more and less than 70%)"},
      {"measurement": "herbicidal effect on R: persian speedwell", "setting": "[25]", "result": "4 (Herbicidal rate of 70% or more and less than 90%)"},
      {"measurement": "herbicidal effect on E: rice flat sedge", "setting": "[26]", "result": "2 (Herbicidal rate of 20% or more and less than 40%)"},
      {"measurement": "herbicidal effect on L: windgrass (criteria 0-5)", "setting": "[27]", "result": "4 (Herbicidal rate of 70% or more and less than 90%)"},
      {"measurement": "herbicidal effect on D: Chinese sprangletop", "setting": "[28]", "result": "0 (Herbicidal rate of 5% or less (almost no effect))"}
    ]}
  ]
}
